# Data from patent US7125853B2, “Bicyclic carbohydrate compounds useful in the treatment of infections caused by Flaviviridae sp., such as hepatitis C and bovine viral diarrhea viruses” (Kemin Pharma B.V.B.A., priority 2003, dated 2006).
# Assays:
# BVDV strain Pe515 = test: anti-BVDV activity in MDBK cells (MTS method); assay type: cell-based, bovine viral diarrhea virus; settings: for anti-viral activity against BVDV (in words): second set of screenings
# Protocol: (§1) The compounds were also screened against flaviviruses. Due to the fact that there is no adequate in vitro assay to screen against HCV, we opted to screen against the bovine viral diarrhea virus (BVDV), as it shares many similarities with the hepatitis C virus. Antiviral activity was assessed using the Pe 515 strain of BVDV on Madin Darby bovine kidney cells (MDBK cells). Both antiviral activity and cytotoxicity was determined by means of the MTS method. The EC50 is the concentration required to reduce virus induced cytopathic effect by 50%. The MTC (minimal toxic concentration) was defined as the concentration that caused >=20% reduction in cell metabolism.
# [1] = tested on: L1210/0, FM3A/0, Molt4/C8 and CEM/0; test: anti-tumor screening, verdict over all tested cell-lines; assay type: cell-based
# CEM/0 = settings: human T-lymphocyte cells, proliferation
# Source text: (§2) The compounds were also checked for anti-tumor activity via the proliferation of murine leukemia cells (L 1210/0), murine mammary carcinoma cells (FM3A) and human T-lymphocyte cells (Molt4/C8, CEM/0).
# Molt4/C8 = settings: human T-lymphocyte cells, proliferation
# Source text: as §2
# FM3A/0 = settings: murine mammary carcinoma cells, proliferation
# Source text: as §2
# L1210/0 = settings: murine leukemia cells, proliferation
# Source text: as §2
# MDBK cells = test: cytotoxicity in MDBK cells (MTS method); assay type: cell-based, bovine; settings: minimal toxic concentration causing >=20% reduction in cell metabolism; highest concentration 100 μg/ml
# Protocol: as §1
# HSV-1 (KOS) = assay type: cell-based, herpes simplex virus; settings: HSV-induced cytopathicity, human embryo fibroblast E6SM cell cultures
# E. faecalis ATCC 29212 = test: antibacterial microdilution screening; assay type: cell-based, Enterococcus faecalis; settings: 16 hours at 35° C., Mueller-Hinton broth
# Protocol: (§3) Based on the NCCLS documents M7-A4, Vol. 17 No. 2, M27-A, Vol 17 No. 9 and M38-P, Vol 18 No. 13, a microdilution method for conducting the antibacterial and antifungal screenings was developed using a Bioscreen C Analyser (Labsystems, Finland), which is an automated reader-incubator. It measures growth continuously by vertical photometry (optical density), processes the data and provides a print-out of the results. For the bacteria we selected as primary target: Staphylococcus aureus ATCC29213, Enterococcus faecalisATCC 29212, Escherichia coli ATCC 25922 and Pseudomonas aeruginosa ATCC 27853. Candida albicans ATCC 24433 and Cryptococcus neoformans ATCC 90112 were selected as yeast targets. The dermatophyte Trichophyton mentagrophytes ATCC 9533 and the invasive mould Aspergillus fumigatus ATCC 2895 were selected as moulds. All parameters necessary for optimal incubation can be programmed in the Biolink-software (Labsystems, Finland). Incubation for all bacterial screenings was 16 hours at 35° C. The incubation parameters for the screenings against Candida and Cryptococcus were respectively 24 and 48 hours at 35° C., the invasive fungus Aspergillus fumigatus was incubated for 3 days at 30° C. and the dermatophyte T. mentagrophytes was incubated for 5 days at 30° C. As growth media for the bacteria cation adjusted Mueller-Hinton broth (Oxoid, Belgium) was used. A synthetic medium is recommended for fungal susceptibility tests: RPMI 1640, with glutamine, and without bicarbonate and with a pH indicator (Oxoid), supplemented with 1% glucose.25 μl of a 10-fold compound concentration is pipetted into each well. To each 25 μl test compound 225 μl of growth media was added. As measurement tool for the antibacterial and anti-yeast screenings, the area under the growth curve is used, which is automatically determined via the Biolink software. For the screenings against the pathogenic moulds we used endpoint OD-measurement. For internal quality control, reference antibiotics for each micro-organism are incorporated in the set-up of the tests.
# CMV Davis, AD-169 = test: CMV-induced plaque formation in HEL cells; assay type: cell-based, human cytomegalo virus; settings: human embryonic lung HEL cells, day 7
# HSV-2 (G) = assay type: cell-based, herpes simplex virus; settings: HSV-induced cytopathicity, human embryo fibroblast E6SM cell cultures
# VV = assay type: cell-based, vaccinia virus; settings: VV-induced cytopathicity, human embryo fibroblast E6SM cell cultures
# A. fumigatus ATCC 2895 = test: antifungal microdilution screening; assay type: cell-based, Aspergillus fumigatus; settings: 3 days at 30° C., RPMI 1640
# Protocol: as §3
# C. neoformans ATCC 90112 = test: antifungal microdilution screening; assay type: cell-based, Cryptococcus neoformans; settings: 48 hours at 35° C., RPMI 1640
# Protocol: as §3
# [2] = tested on: T. mentagrophytes ATCC 9533; test: antifungal microdilution screening; assay type: cell-based, Trichophyton mentagrophytes; settings: 5 days at 30° C., RPMI 1640
# Protocol: as §3
# C. albicans ATCC 24433 = test: antifungal microdilution screening; assay type: cell-based, Candida albicans; settings: 24 hours at 35° C., RPMI 1640
# Protocol: as §3
# S. aureus ATCC 29213 = test: antibacterial microdilution screening; assay type: cell-based, Staphylococcus aureus; settings: 16 hours at 35° C., Mueller-Hinton broth
# Protocol: as §3
# HIV-1 (IIIB) = test: HIV-1-induced cytopathicity in CEM cell cultures; assay type: cell-based, human immunodeficiency virus; settings: human lymphocyte CEM cell cultures
# E. coli ATCC 25922 = test: antibacterial microdilution screening; assay type: cell-based, Escherichia coli; settings: 16 hours at 35° C., Mueller-Hinton broth
# Protocol: as §3
# HIV-2 (ROD) = assay type: cell-based, human immunodeficiency virus; settings: HIV-induced cytopathicity, human lymphocyte CEM cell cultures
# P. aeruginosa ATCC 27853 = test: antibacterial microdilution screening; assay type: cell-based, Pseudomonas aeruginosa; settings: 16 hours at 35° C., Mueller-Hinton broth
# Protocol: as §3
# VZV OKA = assay type: cell-based, varicella zoster virus
SMILES,anti-tumor activity against all tested cell-lines (in words) [1],IC50 CEM/0 (CEM/0) [µg/mL],IC50 Molt4/C8 (Molt4/C8) [µg/mL],IC50 FM3A/0 (FM3A/0) [µg/mL],IC50 L1210/0 (L1210/0) [µg/mL],MTC (μg/ml) MDBK (MDBK cells),EC50 HSV-1 (KOS) (E6SM) (HSV-1 (KOS)) [µg/mL],MIC E. faecalis ATCC 29212 (E. faecalis ATCC 29212) [µg/mL],"EC50 CMV Davis, AD-169 (HEL) (CMV Davis, AD-169) [µg/mL]",EC50 HSV-2 (G) (E6SM) (HSV-2 (G)) [µg/mL],MIC A. fumigatus ATCC 2895 (A. fumigatus ATCC 2895) [µg/mL],MIC C. neoformans ATCC 90112 (C. neoformans ATCC 90112) [µg/mL],MIC T. mentagrophytes ATCC 9533 [2] [µg/mL],MIC C. albicans ATCC 24433 (C. albicans ATCC 24433) [µg/mL],MIC S. aureus ATCC 29213 (S. aureus ATCC 29213) [µg/mL],EC50 HIV-1 (IIIB) (CEM) (HIV-1 (IIIB)) [µg/mL],MIC E. coli ATCC 25922 (E. coli ATCC 25922) [µg/mL],EC50 HIV-2 (ROD) (CEM) (HIV-2 (ROD)) [µg/mL],anti-viral activity against BVDV (in words) (BVDV strain Pe515),MIC P. aeruginosa ATCC 27853 (P. aeruginosa ATCC 27853) [µg/mL],other results
"NC(=O)c1ncn([C@@H]2O[C@H](CO)[C@@H](O)[C@H]2O)n1 [Ribavirin, reference compound]",–,–,–,–,–,–,–,–,–,–,–,–,–,–,–,–,–,–,–,–,"EC50 (BVDV strain Pe515; Bovine viral diarrhea virus isolates and strains, strain Pe515, MDBK cells, MTS method, values separated by / are independent experiments, read-out: EC50 (μg/ml) BVDV): 40 µg/mL"
CCCCOC1C(Cc2ccccc2)OC2COC(c3ccccc3)OC2C1OCCCC (stereo not shown) [Compound A2],moderate anti-tumor activity,27 ± 2,19 ± 1,22 ± 0,82 ± 7,>100/>100/>100 μg/ml,>16,>25,>20,>16,>25,>25,>25,>25,>25,>20,>25,>20,moderate activity,>25,EC50 VV (E6SM) (VV): >16 µg/mL
CCCOC1C(Cc2ccccc2)OC2COC(c3ccccc3)OC2C1OCCC (stereo not shown) [Compound A1],No anti-tumor activity,>200,>200,>200,>200,>100/>100/>100 μg/ml,>16,>25,>20,>16,>25,>25,>25,>25,>25,>20,>25,>4,significant anti-viral activity,>25,EC50 VV (E6SM) (VV): >16 µg/mL
CC(C)OC1C(c2ccccc2)OC2COC(c3ccccc3)OC2C1OC(C)C (stereo not shown) [Compound A3],–,–,–,–,–,>100 µg/mL,>8,>25,>5,>8,>25,>25,>25,>25,>25,>20,>25,>4,significant anti-viral activity,>25,"EC50 VZV (HEL) OKA (VZV OKA; VZV-induced plaque formation, human embryonic lung HEL cell cultures, OKA strain): 1.1 µg/mL; activity against VZV (in words) (VZV OKA; first set of screenings): showed activity against VZV; EC50 (μg/ml) BVDV (BVDV strain Pe515; strain Pe515, MDBK cells, MTS method, values separated by / are independent experiments): < 0.8 µg/mL"
